In US11696928B2, “Compounds and use thereof in the expansion of stem cells and/or progenitor cells” (UNIVERSITE DE MONTREAL, priority 2017, dated 2023):

Columns and labels:
[1] = system: Human CD34+ cord blood (CB) cells; assay: CD34+ activity assessment (7-day expansion of pre-expanded CD34+ cells, flow cytometry); type: cell-based; details: concentration at which compound/vehicle ratio of CD34+ cell number is >= 1.5; 7 days, with 35 nM UM0128171; Table 1
Description: Human CD34+ cord blood (CB) cells were isolated from fresh units using RosetteSep™ 0034 pre-enrichment cocktail followed by CD34 positive selection using EasySep Kit™ (StemCell Technologies). The cells were then pre-expanded in bulk, by culturing at 37° C. for 6 days in HSC expansion media consisting of StemSpan ACF (StemCell Technologies) supplemented with 100 ng/mL Stem Cell Factor (SCF, Shenandoah), 100 ng/mL FMS-like Tyrosine Kinase 3 Ligand (FLT3L, Shenandoah), 50 ng/mL Thrombopoietin (TPO, Shenandoah), 2 mM GlutaMAX™ (Invitrogen), 10 μg/mL low density lipoproteins (LDL, StemCell Technologies), 10 μg/mL Ciprofloxacin and 35 nM UM0128171. […] Following the pre-expansion, cells were harvested, aliquoted and frozen until use.
For each activity assessment, CD34+ pre-expanded cells (approximately 2000 per well in a 384-well plate) were cultured in HSC expansion media, in the presence of 35 nM UM0128171. Compounds were serially diluted (1/2) in DMSO (10 dilutions per compound) and added to the cells in order to achieve a 1/1000 final dilution. StemRegenin1 (SR1) and/or Compound 1001 were included in all experiments as controls to monitor assay performance. The plate was incubated at 37° C. for 7 days in static conditions (i.e. no shaking and no addition of media). Flow cytometry analysis was performed at the end of the 7-day expansion. Cells were stained with PE-labeled anti-human CD45RA (BD Biosciences) and APC-labeled anti-human CD34 (BD Biosciences) and analyzed using Intellicyt IQue cytometer equipped with ForeCyt software. Gates were drawn around the populations of interest to obtain cell numbers and relative proportions. The EC1.5 value, which is the concentration at which the compound/vehicle ratio is greater or equal to 1.5, was calculated by plotting the CD34+ cell number against concentrations (log-scale) in a 4-PL curve and fitting the curve using IDBS XLfit (set model 251) in Microsoft Excel.

AhR = target: T1, AhR (Homo sapiens, UniProt P35869); assay: Inhibition of AhR-mediated gene transcription (HEK-XRE 11.1 luciferase reporter, MeBIO induction); type: cell-based; details: HEK-XRE 11.1 cells, MeBIO 0.1 nM, luminescence after 24 hours; Table 1
T1 construct: One of the resultant clones was named HEK-XRE 11.1, and used in the reporter gene assays; endogenous in cells; host or cells: HEK-XRE 11.1 (HEK cells stably carrying the AhR-responsive luciferase reporter X4-4.27 and phRL-CMV)
T1 sequence (P35869 11-848): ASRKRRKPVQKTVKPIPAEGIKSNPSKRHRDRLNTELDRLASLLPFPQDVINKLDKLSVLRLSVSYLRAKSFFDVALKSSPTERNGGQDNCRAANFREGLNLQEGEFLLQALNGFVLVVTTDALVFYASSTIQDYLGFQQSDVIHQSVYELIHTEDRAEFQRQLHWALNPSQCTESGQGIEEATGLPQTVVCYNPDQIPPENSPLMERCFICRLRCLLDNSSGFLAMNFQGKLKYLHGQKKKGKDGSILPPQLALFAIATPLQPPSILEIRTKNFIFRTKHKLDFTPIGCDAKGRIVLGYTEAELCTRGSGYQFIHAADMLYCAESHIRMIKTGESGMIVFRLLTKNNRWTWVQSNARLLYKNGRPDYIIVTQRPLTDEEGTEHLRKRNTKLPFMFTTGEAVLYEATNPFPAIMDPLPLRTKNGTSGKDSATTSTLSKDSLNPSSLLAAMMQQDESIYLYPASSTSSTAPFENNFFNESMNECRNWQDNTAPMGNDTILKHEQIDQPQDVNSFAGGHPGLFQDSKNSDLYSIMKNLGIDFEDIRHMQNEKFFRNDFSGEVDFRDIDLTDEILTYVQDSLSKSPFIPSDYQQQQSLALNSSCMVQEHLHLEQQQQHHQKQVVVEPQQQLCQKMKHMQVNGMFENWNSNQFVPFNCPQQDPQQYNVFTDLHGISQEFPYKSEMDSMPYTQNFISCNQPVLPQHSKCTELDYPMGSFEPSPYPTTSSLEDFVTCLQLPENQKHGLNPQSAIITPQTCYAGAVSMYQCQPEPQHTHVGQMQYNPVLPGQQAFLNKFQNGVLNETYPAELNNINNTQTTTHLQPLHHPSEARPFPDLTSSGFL
Description: HEK cells line was transfected with an AhR-responsive firefly luciferase reporter gene X4-4.27 and the stable transfectants generated were again transfected with phRL-CMV (a Renilla luciferase expression vector; Promega) along with pBAsi-hU6 Pur DNA (a plasmid carrying the puromycin-resistant gene; TaKaRa, Shiga, Japan), and maintained in the presence of both hygromycin B and puromycin (2 mg/mL). One of the resultant clones was named HEK-XRE 11.1, and used in the reporter gene assays.
HEK-XRE 11.1 cells were plated in 384-well plates at a density of 25,000 cells in 50 uL volume per well. The induction of ARh pathway was done by addition of MeBIO at 0.1 nM concentration. ARh antagonist compounds were then added to seeded cells in serial dilutions (8 dilutions, 1:[…] down to 5 nM) in duplicate wells. Renilla expression was not used as internal control. On each plate, Compound 1001 and SR1 were added as dose control (8 dilutions, 1:3, 5 mM down to 2.5 nM for SR1 and 2 mM down to 1 nM for compound 1001). Luminescence activity was evaluated after 24 hours culture using Lumi-384-CellTiterGlo-Corning protocol. Dose-response curves were generated using nonlinear regression in Excel.

| SMILES | EC1.5 [1] [nM] | IC50 (AhR) [nM] |
| --- | --- | --- |
| COc1ccc(NC(=O)c2sc3ncc(C)cc3c2N)cc1Cl [Compound 1135] | <100 | < 50 |
| Cc1ccc(NC(=O)c2sc3ncc(C(F)(F)F)cc3c2N)cc1F [Compound 1078] | 1000 to 5000 | 50 to 500 |
| Cc1ccc2sc(C(=O)Nc3ccc(F)cc3)c(N)c2c1 [Compound 1120] | <100 | < 50 |
| CCOc1ccc(NC(=O)c2sc3ncc(C)cc3c2N)cc1 [Compound 1142] | 100 to 1000 | < 50 |
| Nc1c(C(=O)Nc2cccc3ncccc23)sc2ncc(C(F)(F)F)cc12 [Compound 1040] | >5000 | 50 to 500 |
| Nc1c(C(=O)Nc2ccccc2)sc2nc3c(cc12)CCCCC3 [Compound 1113] | 1000 to 5000 | 50 to 500 |
| Cc1ccc2sc(C(=O)Nc3ccccc3)c(N)c2n1 [Compound 1072] | >5000 | 50 to 500 |
| Nc1c(C(=O)Nc2ccc(Br)cc2)sc2ccc(C(F)(F)F)cc12 [Compound 1064] | 100 to 1000 | 50 to 500 |
| Nc1c(C(=O)Nc2ccccn2)sc2nc3c(cc12)CCC3 [Compound 1007] | 100 to 1000 | < 50 |
| Cc1cnc2sc(C(=O)Nc3ccc(OC(F)(F)F)cc3)c(N)c2c1 [Compound 1149] | 100 to 1000 | < 50 |
| Nc1c(C(=O)Nc2cccc(-c3cccnc3)c2)sc2ncc(C(F)(F)F)cc12 [Compound 1057] | 1000 to 5000 | < 50 |
| Nc1c(C(=O)Nc2ccccc2)sc2ncc(C(F)(F)F)cc12 [Compound 1008] | 100 to 1000 | > 500 |
| Nc1c(C(=O)Nc2ccc(OCc3ccccc3)cc2)sc2ncc(C(F)(F)F)cc12 [Compound 1031] | 100 to 1000 | 50 to 500 |
| Cc1cnc2sc(C(=O)Nc3ccc(F)cc3)c(N)c2c1 [Compound 1115] | <100 | < 50 |
| Nc1c(C(=O)Nc2ccncc2)sc2nc3c(cc12)CCC3 [Compound 1014] | 1000 to 5000 | 50 to 500 |
| Cc1cnc2sc(C(=O)Nc3ccsc3)c(N)c2c1 [Compound 1150] | 100 to 1000 | < 50 |
| Nc1c(C(=O)Nc2cccc3cnccc23)sc2ncc(C(F)(F)F)cc12 [Compound 1039] | >5000 | 50 to 500 |
| COc1cccc(NC(=O)c2sc3ncc(C(F)(F)F)cc3c2N)c1 [Compound 1085] | 100 to 1000 | 50 to 500 |
| Nc1c(C(=O)Nc2ccc(S(N)(=O)=O)cc2)sc2ncc(C(F)(F)F)cc12 [Compound 1127] | >5000 | 50 to 500 |
| COc1ccc(NC(=O)c2sc3ncc(C(F)(F)F)cc3c2N)cc1-c1ccccc1 [Compound 1033] | 100 to 1000 | 50 to 500 |
| Cc1cccc(NC(=O)c2sc3ncc(C(F)(F)F)cc3c2N)c1 [Compound 1094] | <100 | < 50 |
| Nc1c(C(=O)Nc2ccc(CO)cc2)sc2ncc(C(F)(F)F)cc12 [Compound 1019] | >5000 | > 500 |

| SMILES | EC1.5 [1] [nM] | IC50 (AhR) [nM] |
| --- | --- | --- |
| Nc1c(C(=O)Nc2ccc3[nH]ncc3c2)sc2ncc(C(F)(F)F)cc12 [Compound 1110] | >5000 | 50 to 500 |
| COc1cc(NC(=O)c2sc3ncc(C(F)(F)F)cc3c2N)ccc1F [Compound 1121] | 100 to 1000 | 50 to 500 |
| Cc1cnc2sc(C(=O)Nc3cccc(Cl)c3)c(N)c2c1 [Compound 1139] | 100 to 1000 | < 50 |
| Nc1c(C(=O)Nc2ccc(CCO)cc2)sc2ncc(C(F)(F)F)cc12 [Compound 1017] | 100 to 1000 | 50 to 500 |
| COCCc1ccc(NC(=O)c2sc3ncc(C(F)(F)F)cc3c2N)cc1 [Compound 1046] | >5000 | 50 to 500 |
| CCc1ccc(NC(=O)c2sc3ncc(C(F)(F)F)cc3c2N)cc1 [Compound 1024] | 100 to 1000 | < 50 |
| Nc1c(C(=O)Nc2ccc3c(c2)OCO3)sc2ncc(C(F)(F)F)cc12 [Compound 1098] | <100 | 50 to 500 |
| Nc1c(C(=O)Nc2ccc(Cl)cc2)sc2cnc(C(F)(F)F)cc12 [Compound 1051] | 1000 to 5000 | 50 to 500 |
| N#Cc1cnc2sc(C(=O)Nc3ccccc3)c(N)c2c1 [Compound 1016] | 100 to 1000 | > 500 |
| Nc1c(C(=O)Nc2ccc(Cl)cc2)sc2nc3c(cc12)CCC3 [Compound 1082] | <100 | < 50 |
| Cc1nc2cc(NC(=O)c3sc4ncc(C(F)(F)F)cc4c3N)ccc2s1 [Compound 1101] | 100 to 1000 | < 50 |
| Cc1cccc(NC(=O)c2sc3ccc(C(F)(F)F)cc3c2N)c1 [Compound 1145] | >5000 | 50 to 500 |
| Nc1c(C(=O)Nc2ccccc2)sc2nc3c(cc12)CCCC3 [Compound 1104] | 100 to 1000 | 50 to 500 |
| Nc1c(C(=O)Nc2ccccc2)sc2cnc(C(F)(F)F)cc12 [Compound 1025] | 100 to 1000 | < 50 |
| COc1ccc(NC(=O)c2sc3ncc(C(F)(F)F)cc3c2N)cc1Cl [Compound 1087] | <100 | < 50 |
| Nc1c(C(=O)Nc2cc(F)cc(F)c2)sc2ncc(C(F)(F)F)cc12 [Compound 1079] | 1000 to 5000 | 50 to 500 |
| Nc1c(C(=O)Nc2cnc3ccccc3c2)sc2ncc(C(F)(F)F)cc12 [Compound 1042] | 1000 to 5000 | > 500 |
| Nc1c(C(=O)Nc2ncccn2)sc2ncc(C(F)(F)F)cc12 [Compound 1107] | 1000 to 5000 | < 50 |
| CCOC(=O)c1cnc2sc(C(=O)Nc3ccccc3)c(N)c2c1 [Compound 1044] | >5000 | 50 to 500 |
| COc1ccc(NC(=O)c2sc3ccc(C)cc3c2N)cc1 [Compound 1119] | 100 to 1000 | 50 to 500 |
| Nc1c(C(=O)Nc2ccc(F)cc2)sc2nc3c(cc12)CCCC3 [Compound 1106] | 1000 to 5000 | 50 to 500 |
| CCOC(=O)Cc1ccc(NC(=O)c2sc3ncc(C(F)(F)F)cc3c2N)cc1 [Compound 1032] | 1000 to 5000 | 50 to 500 |
